What is called IC50 is the point on the concentration scale where inhibition reaches its midpoint.

For 26 compounds, IC50 results are on record in patent publication US8431593B2, “Heteroaryl amide derivatives” (H. Lundbeck A/S, priority 2006, dated 2013).

The target in this test is T1, P2X7 receptor (Homo sapiens, UniProt Q99572).
T1 construct: host or cells: SH-SY5Y
T1 sequence (Q99572 1-595): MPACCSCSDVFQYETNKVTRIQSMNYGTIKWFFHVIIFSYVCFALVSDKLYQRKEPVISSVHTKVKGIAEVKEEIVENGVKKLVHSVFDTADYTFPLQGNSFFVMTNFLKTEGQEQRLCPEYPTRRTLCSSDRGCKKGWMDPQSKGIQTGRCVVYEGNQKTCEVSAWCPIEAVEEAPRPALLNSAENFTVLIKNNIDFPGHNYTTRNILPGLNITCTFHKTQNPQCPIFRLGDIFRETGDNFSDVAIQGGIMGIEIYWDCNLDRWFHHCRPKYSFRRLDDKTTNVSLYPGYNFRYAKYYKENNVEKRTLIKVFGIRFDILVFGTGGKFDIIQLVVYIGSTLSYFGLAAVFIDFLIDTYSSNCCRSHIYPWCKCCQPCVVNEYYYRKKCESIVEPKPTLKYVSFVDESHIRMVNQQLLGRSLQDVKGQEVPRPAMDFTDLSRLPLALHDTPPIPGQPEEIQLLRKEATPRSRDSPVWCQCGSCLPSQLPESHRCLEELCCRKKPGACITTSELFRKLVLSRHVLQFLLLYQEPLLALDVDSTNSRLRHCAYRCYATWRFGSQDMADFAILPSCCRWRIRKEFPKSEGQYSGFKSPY
As to the kind of experiment: P2X7 calcium mobilization assay, high throughput, antagonist activity (Example 4A). Type of test: cell-based. The conditions noted are these: 50% decrease in the fluorescence response of cells exposed to 80 μM 2′(3′)-O-(4-benzoyl-benzoyl)adenosine 5′-triphosphate; Example 4A; read-out: IC50. An outline of the steps: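 Antagonism was measured as calcium fluorescence (FLIPR Tetra) in cells seeded one day earlier at 100,000/well, loaded with dye for 1 h and exposed to compound for 1 h at room temperature before agonist. Peak RFU, minus the no-agonist background, was referenced to the mean of the agonist wells.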

For the compound `COCCCN(C(=O)Cc1cn2c(C(=O)NC[C@@H]3CC[C@@H]4C[C@H]3C4(C)C)cccc2n1)C1CCNCC1(C)C` (stereo partly drawn) [Compound 572, N-{[(1R,2R,5R)-6,6-dimethylbicyclo[3.1.1]hept-2-yl]methyl}-2-{2-[(3,3-dimethylpiperidin-4-yl)(3-methoxy-propyl)amino]-2-oxoethyl} imidazo[1,2-a] pyridine-5-carboxamide], the IC50 is < 2 µM.

Turning to `COCCN(C(=O)Cc1cn2c(C(=O)NC[C@@H]3CC[C@@H]4C[C@H]3C4(C)C)cccc2n1)C1CCNCC1(C)C` (stereo partly drawn) [Compound 573, N-{[(1R,2R,5R)-6,6-dimethylbicyclo[3.1.1]hept-2-yl]methyl}-2-{2-[(3,3-dimethyl-piperidin-4-yl)(2-methoxyethyl)amino]-2-oxoethyl}imidazo [1,2-a]pyridine-5-carboxamide], the IC50 is < 2 µM.

Consider `CN(C)CCN(C(=O)Cc1cn2c(C(=O)NC[C@@H]3CC[C@@H]4C[C@H]3C4(C)C)cccc2n1)C1CCNCC1(C)C` (stereo partly drawn) [Compound 574, 2-(2-{[2-(dimethylamino)ethyl] (3,3-dimethylpiperidin-4-yl)amino}-2-oxoethyl)-N-{[(1R,2R,5R)-6,6-dimethylbicyclo [3.1.1]hept-2-yl]methyl}imidazo[1,2-a]pyridine-5-carboxamide], for which the IC50 is < 2 µM.

With `CC1(C)[C@@H]2CC[C@@H](CNC(=O)c3cccc4nc(CC(=O)N5CCCC(CN)C5)cn34)[C@H]1C2` (stereo partly drawn) [Compound 578, 2-{2-[3-(aminomethyl)piperidin-1-yl]-2-oxoethyl}-N-{[(1R,2R,5R)-6,6-dimethylbicyclo[3.1.1]hept-2-yl]methyl}imidazo[1,2-a]pyridine-5-carboxamide], the concentration for half-maximal inhibition (IC50) is < 2 µM.

For `CC1(C)[C@@H]2CC[C@@H](CNC(=O)c3cccc4nc(CC(=O)N5CCCCC5CN)cn34)[C@H]1C2` (stereo partly drawn) [Compound 579, 2-{2-[2-(aminomethyl)piperidin-1-yl]-2-oxoethyl}-N-{[(1R,2R,5R)-6,6-dimethylbicyclo[3.1.1]hept-2-yl]methyl}imidazo[1,2-a]pyridine-5-carboxamide], the IC50 was < 2 µM.

With `CC1(C)[C@@H]2CC[C@@H](CNC(=O)c3cccc4nc(CC(=O)N5CCCC5CN)cn34)[C@H]1C2` (stereo partly drawn) [Compound 580, 2-{2-[2-(aminomethyl)pyrrolidin-1-yl]-2-oxoethyl}-N-{[(1R,2R,5R)-6,6-dimethylbicyclo[3.1.1]hept-2-yl]methyl}imidazo[1,2-a]pyridine-5-carboxamide], the IC50 was < 2 µM.

For the compound `CC1(C)[C@@H]2CC[C@@H](CNC(=O)c3cccc4nc(CC(=O)N5CCCC(N)C5)cn34)[C@H]1C2` (stereo partly drawn) [Compound 581, 2-[2-(3-aminopiperidin-1-yl)-2-oxoethyl]-N-{[(1R,2R,5R)-6,6-dimethylbicyclo[3.1.1]hept-2-yl]methyl}imidazo[1,2-a]pyridine-5-carboxamide], the IC50 was < 2 µM.

On to `CC1(C)[C@@H]2CC[C@@H](CNC(=O)c3cccc4nc(CC(=O)N5CCC[C@@H]5CN)cn34)[C@H]1C2` [Compound 584, 2-{2-[(2R)-2-(aminomethyl)pyrrolidin-1-yl]-2-oxoethyl}-N-{[(1R,2R,5R)-6,6-dimethylbicyclo [3.1.1]hept-2-yl]methyl}imidazo [1,2-a]pyridine-5-carboxamide], for which the IC50 was < 2 µM.

`CC1(C)[C@@H]2CC[C@@H](CNC(=O)c3cccc4nc(CC(=O)N5CCC[C@H]5CN)cn34)[C@H]1C2` [Compound 587, 2-{2-[(2S)-2-(aminomethyl)pyrrolidin-1-yl]-2-oxoethyl}-N-{[(1R,2R,5R)-6,6-dimethylbicyclo [3.1.1]hept-2-yl]methyl}imidazo[1,2-a]pyridine-5-carboxamide]: the IC50 was < 2 µM.

Consider `CC1(C)[C@@H]2CC[C@@H](CNC(=O)c3cccc4nc(CC(=O)N5CC[C@@H](N)C5)cn34)[C@H]1C2` [Compound 588, 2-{2-[(3R)-3-aminopyrrolidin-1-yl]-2-oxoethyl}-N-{[(1R,2R,5R)-6,6-dimethylbicyclo[3.1.1]hept-2-yl]methyl}imidazo [1,2-a]pyridine-5-carboxamide], for which the IC50 was < 2 µM.

In the case of `CC1(C)[C@@H]2CC[C@@H](CNC(=O)c3cccc4nc(CC(=O)NCC5CCNCC5)cn34)[C@H]1C2` [Compound 589, N-{[(1R,2R,5R)-6,6-dimethylbicyclo[3.1.1]hept-2-yl]methyl}-2-{2-oxo-2-[(piperidin-4-ylmethyl)amino]ethyl} imidazo[1,2-a]pyridine-5-carboxamide], the IC50 was < 2 µM.

Take `CC1(C)[C@@H]2CC[C@@H](CNC(=O)c3cccc4nc(CC(=O)NCC5CCCN5)cn34)[C@H]1C2` (stereo partly drawn) [Compound 590, N-{[(1R,2R,5R)-6,6-dimethylbicyclo[3.1.1]hept-2-yl]methyl}-2-{2-oxo-2-[(pyrrolidin-2-ylmethyl)amino]ethyl} imidazo[1,2-a]pyridine-5-carboxamide]: the IC50 was < 2 µM.

Turning to `CC1(C)[C@@H]2CC[C@@H](CNC(=O)c3cccc4nc(CC(=O)NC5CCNC5)cn34)[C@H]1C2` (stereo partly drawn) [Compound 591, N-{[(1R,2R,5R)-6,6-dimethylbicyclo[3.1.1]hept-2-yl]methyl}-2-[2-oxo-2-(pyrrolidin-3-ylamino)ethyl]imidazo [1,2-a]pyridine-5-carboxamide], the IC50 is < 2 µM.

As for `CC1(C)[C@@H]2CC[C@@H](CNC(=O)c3cccc4nc(CC(=O)NC5CCNCC5)cn34)[C@H]1C2` [Compound 592, N-{[(1R,2R,5R)-6,6-dimethylbicyclo[3.1.1]hept-2-yl]methyl}-2-[2-oxo-2-(piperidin-4-ylamino)ethyl]imidazo [1,2-a]pyridine-5-carboxamide], the IC50 is < 2 µM.

Turning to `CC1(C)[C@@H]2CC[C@@H](CNC(=O)c3cccc4nc(CC(=O)N5CCOC(CN)C5)cn34)[C@H]1C2` (stereo partly drawn) [Compound 594, 2-{2-[2-(aminomethyl)morpholin-4-yl]-2-oxoethyl}-N-{[(1R,2R,5R)-6,6-dimethylbicyclo [3.1.1]hept-2-yl]methyl}imidazo[1,2-a]pyridine-5-carboxamide], the IC50 is < 2 µM.

On to `Cc1cc(-c2cn3c(C(=O)NCC(CC(C)C)c4cccnc4)cccc3n2)n[nH]1` (centres unmarked) [Compound 595, 2-(5-methyl-1H-pyrazol-3-yl)-N-(4-methyl-2-pyridin-3-ylpentyl)imidazo[1,2-a]pyridine-5-carboxamide], for which the IC50 is < 2 µM.

On to `CNCc1cn2c(C(=O)NCC34CC5CC(CC(C5)C3)C4)cccc2n1` [Compound 596, N-(adamantan-1-ylmethyl)-2-[(methylamino)methyl] imidazo[1,2-a] pyridine-5-carboxamide], for which the IC50 was < 2 µM.

Turning to `CC(C)NCc1cn2c(C(=O)NCC34CC5CC(CC(C5)C3)C4)cccc2n1` [Compound 597, N-(adamantan-1-ylmethyl)-2-[(isopropylamino)methyl]imidazo [1,2-a]pyridine-5-carboxamide], the half-inhibitory concentration (IC50) is < 2 µM.

On to `N#CCc1cn2c(C(=O)NCC34CC5CC(CC(C5)C3)C4)cccc2n1` [Compound 598, N-(adamantan-1-ylmethyl)-2-(cyanomethyl)imidazo [1,2-a]pyridine-5-carboxamide], for which the IC50 was < 2 µM.

Turning to `O=C(NCC12CC3CC(CC(C3)C1)C2)c1cccc2nc(CCI)cn12` [Compound 599, N-(adamantan-1-ylmethyl)-2-(2-iodoethyl)imidazo[1,2-a]pyridine-5-carboxamide], the IC50 is < 2 µM.

Regarding `C[C@@H]1CNCCN1C(=O)c1cn2c(C(=O)NCC34CC5CC(CC(C5)C3)C4)cccc2n1` [Compound 600, N-(adamantan-1-ylmethyl)-2-{[(2R)-2-methylpiperazin-1-yl]carbonyl}imidazo[1,2-a]pyridine-5-carboxamide], the IC50 is < 2 µM.

As for `C[C@H]1CNCCN1C(=O)c1cn2c(C(=O)NCC34CC5CC(CC(C5)C3)C4)cccc2n1` [Compound 601, N-(adamantan-1-ylmethyl)-2-{[(2S)-2-methylpiperazin-1-yl]carbonyl}imidazo [1,2-a]pyridine-5-carboxamide], the IC50 was < 2 µM.

As to `CC1CNCCN1C(=O)c1cn2c(C(=O)NCC34CC5CC(CC(C5)C3)C4)cccc2n1` (centres unmarked) [Compound 602, N-(adamantan-1-ylmethyl)-2-[(2-methylpiperazin-1-yl)carbonyl]imidazo[1,2-a]pyridine-5-carboxamide], the half-maximal inhibitory concentration (IC50) was < 2 µM.

As to `O=C(NCC12CC3CC(CC(C3)C1)C2)c1cccc2nc(C(=O)N3CCNCC3)cn12` [Compound 603, N-(adamantan-1-ylmethyl)-2-(piperazin-1-ylcarbonyl) imidazo[1,2-a]pyridine-5-carboxamide], the half-inhibitory concentration (IC50) is < 2 µM.

On to `C[C@@H]1CN(C(=O)c2cn3c(C(=O)NCC45CC6CC(CC(C6)C4)C5)cccc3n2)CCN1` [Compound 604, N-(adamantan-1-ylmethyl)-2-{[(3R)-3-methylpiperazin-1-yl]carbonyl}imidazo[1,2-a]pyridine-5-carboxamide], for which the IC50 was < 2 µM.

As for `CN(C(=O)c1cn2c(C(=O)NCC34CC5CC(CC(C5)C3)C4)cccc2n1)C1CCCNC1` (centres unmarked) [Compound 605, 5-N-(adamantan-1-ylmethyl)-2-N-methyl-2-N-piperidin-3-ylimidazo[1,2-a]pyridine-2,5-dicarboxamide], the 50% inhibitory concentration (IC50) was < 2 µM.
